In PubChem BioAssay (NCI):
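A five-concentration, 48-hour dose response in 96-well plates underlies each endpoint, interpolated linearly between surrounding concentrations. Abbreviation: GI50, concentration required for 50% inhibition of growth. The concentration for full growth arrest is given as TGI.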

Key:
Assay in all cases: NCI anticancer screen, dose series, 48 h
[1] = tested on: OVCAR-4 ovarian
[2] = tested on: HT29 colon
[3] = tested on: SN12C renal
[4] = tested on: TK-10 renal
[5] = tested on: UO-31 renal
[6] = tested on: A498 renal
[7] = tested on: NCI/ADR-RES ovarian
[8] = tested on: SNB-19 CNS
[9] = tested on: SK-MEL-28 melanoma
[10] = tested on: SK-MEL-5 melanoma

Compound	TGI [1] [µM]	TGI [2] [µM]	TGI [3] [µM]	TGI [4] [µM]	TGI [5] [µM]	TGI [6] [µM]	TGI [7] [µM]	TGI [8] [µM]	TGI [9] [µM]	TGI [10] [µM]	GI50 [1] [µM]	GI50 [3] [µM]	GI50 [4] [µM]	GI50 [5] [µM]	GI50 [6] [µM]	GI50 [7] [µM]	GI50 [8] [µM]	GI50 [10] [µM]	GI50 [9] [µM]
Cc1ccc(-c2cc(O)c3nc4ccccc4n3c2)cc1	> 100	> 100	> 100	> 100	> 100	> 100	> 100	> 100	> 100	–	–	–	–	–	–	–	–	–	–
O=C1C=C2CCC[C@H]3OC(=O)C[C@@]23CC1	> 100	> 100	> 100	> 100	–	> 100	> 100	> 100	> 100	> 100	–	–	–	–	–	–	–	–	–
Cc1ccc(S(=O)(=O)[C@@H](Cl)[C@H]2N=C(Cl)NN=C2c2ccccc2)cc1	36.6	> 100	54	> 100	35.7	35.7	50.8	> 100	36.1	34.5	–	–	–	–	–	–	–	–	–
Cc1ccc(-c2nnc(CCCCCCCCc3nnc(-c4ccc(C)cc4O)n3N)n2N)c(O)c1	> 100	–	> 100	> 100	> 100	> 100	> 100	> 100	> 100	–	–	–	–	–	–	–	–	–	–
O=c1[nH]c(=O)n(COCCO)c2ccsc12	> 100	> 100	> 100	> 100	> 100	> 100	> 100	> 100	> 100	> 100	–	–	–	–	–	–	–	–	–
NC(Cc1c[nH]c2cc([N+](=O)[O-])ccc12)C(=O)O (stereo not given)	> 100	> 100	> 100	> 100	> 100	> 100	> 100	> 100	> 100	> 100	–	–	–	–	–	–	–	–	–
CCOc1ccc(N=NC2C(=O)N(C(=O)CC(=O)Nc3ccccc3)N=C2C)cc1 (stereo not given)	> 100	> 100	> 100	> 100	> 100	> 100	> 100	> 100	> 100	> 100	–	–	–	–	–	–	–	–	–
CS[C@]12[C@@H]3C(=O)N(C)C(=O)[C@@H]3[C@](C)(C(=O)N1C)C(=O)N2c1ccccc1	> 100	> 100	> 100	> 100	> 100	> 100	> 100	> 100	> 100	> 100	–	–	–	–	–	–	–	–	–
O=[N+]([O-])c1ccc2oc(=Nc3ccccc3)c(Nc3ccccc3)nc2c1	> 100	> 100	> 100	> 100	> 100	> 100	> 100	> 100	> 100	> 100	–	–	–	–	–	–	–	–	–
CC(=O)OC1C2CCC3C(C)(O)C4CC(O)C(C)(C)C4(O)C(O)CC13CC2(C)O (stereo not given)	> 100	> 100	> 100	> 100	> 100	> 100	> 100	> 100	–	> 100	–	–	–	–	–	–	–	–	–
COC(=O)CCc1c(Cc2ccc[nH]2)[nH]c(C(=O)OCc2ccccc2)c1C	34	38.9	35.6	76.2	–	62.8	52.1	85.8	39.7	29.2	–	–	–	–	–	–	–	–	–
N=C(N)SCCC(=O)CCSC(=N)N	> 100	> 100	> 100	> 100	> 100	> 100	> 100	> 100	> 100	> 100	–	–	–	–	–	–	–	–	–
COc1ccc(C(Cc2ccccc2)C2NC(=S)NC2=O)cc1 (stereo not given)	> 25	> 25	> 25	> 25	> 25	> 25	> 25	> 25	> 25	> 25	–	–	–	–	–	–	–	–	–
COC(=O)c1c(CC(Cc2ccc3c(c2)CCCC3)C(=O)OC)ccc2c1CCCC2 (stereo not given)	45.1	> 100	> 100	> 100	> 100	> 100	> 100	> 100	> 100	> 100	–	–	–	–	–	–	–	–	–
CC(C)(C)CC(C)(C)NC(=S)NO	> 100	> 100	> 100	> 100	> 100	> 100	> 100	> 100	> 100	> 100	–	–	–	–	–	–	–	–	–
C=C(C)C1CC/C(C)=C/CC[C@]2(C)O[C@@H]2CCC2=CC1OC2=O (stereo not given in full)	> 100	–	> 100	> 100	25.3	> 100	> 100	> 100	> 100	> 100	> 100	78.8	15.7	12.7	23.2	> 100	> 100	78.8	> 100
O=CC(O)C(O)C(O)C1CNC(=S)O1 (stereo not given)	> 100	> 100	> 100	> 100	> 100	> 100	> 100	–	> 100	> 100	–	–	–	–	–	–	–	–	–
Nc1ccc(Nc2cc(=O)[nH]c(=O)[nH]2)cc1	> 100	> 100	> 100	> 100	–	> 100	> 100	> 100	> 100	> 100	–	–	–	–	–	–	–	–	–
O=Nn1c2ccccc2c2cc([N+](=O)[O-])ccc21	32.1	68	37	32.1	49.2	26.9	74	58.1	39.3	> 100	–	–	–	–	–	–	–	–	–
CN(C)c1ccc(/C=C/C(=O)N[C@@H]2C(=O)N3[C@@H]2SC(C)(C)[C@@H]3C(=O)O)cc1	> 100	> 100	> 100	> 100	> 100	> 100	> 100	> 100	> 100	> 100	–	–	–	–	–	–	–	–	–
